Test results reported in patent US11840551B2, “Compositions and methods of modulating the immune response by activating alpha protein kinase 1” (Shanghai Yao Yuan Biotechnology Co., Ltd., priority 2017, dated 2023).
Entries after “also recorded” stand apart in the source; their conditions may differ.

Target: ALPK1 (Homo sapiens, UniProt Q96QP1)
Assay: IL8 secretion in HEK293 cells (IL8 ELISA) as indicator of ALPK1 activation
Conditions: for IL8 secretion in HEK293 cells: serial dilutions, 4 hours
Protocol: Phosphatase such as the alkaline phosphatase may be responsible for H1b-ADP hydrolysis. We pre-mixed H1b-ADP with phosphatase inhibitor sodium orthovanadate (Na3VO4) before incubation with FBS. […] We hypothesized that the accumulation of hydrolysis product AMP can inhibit phosphatase activity.
A number of H1b-ADP derivative compounds were made as described herein and tested for biological activity as agonists of ALPK1 in vitro. In these experiments, serial dilutions of the compounds were added to the tissue culture media of HEK293 cells with (FIG. 27B, FIG. 28B, FIG. 29B) or without (FIG. 26, FIG. 27A, FIG. 28A, FIG. 29A) 10% FBS, as indicated in the figures. After 4 hours, the cell supernatant was collected and analyzed for IL8 concentration using IL8 ELISA (BD) as an indicator of ALPK1 activation.

Chain of ALPK1 (Q96QP1 whole entry): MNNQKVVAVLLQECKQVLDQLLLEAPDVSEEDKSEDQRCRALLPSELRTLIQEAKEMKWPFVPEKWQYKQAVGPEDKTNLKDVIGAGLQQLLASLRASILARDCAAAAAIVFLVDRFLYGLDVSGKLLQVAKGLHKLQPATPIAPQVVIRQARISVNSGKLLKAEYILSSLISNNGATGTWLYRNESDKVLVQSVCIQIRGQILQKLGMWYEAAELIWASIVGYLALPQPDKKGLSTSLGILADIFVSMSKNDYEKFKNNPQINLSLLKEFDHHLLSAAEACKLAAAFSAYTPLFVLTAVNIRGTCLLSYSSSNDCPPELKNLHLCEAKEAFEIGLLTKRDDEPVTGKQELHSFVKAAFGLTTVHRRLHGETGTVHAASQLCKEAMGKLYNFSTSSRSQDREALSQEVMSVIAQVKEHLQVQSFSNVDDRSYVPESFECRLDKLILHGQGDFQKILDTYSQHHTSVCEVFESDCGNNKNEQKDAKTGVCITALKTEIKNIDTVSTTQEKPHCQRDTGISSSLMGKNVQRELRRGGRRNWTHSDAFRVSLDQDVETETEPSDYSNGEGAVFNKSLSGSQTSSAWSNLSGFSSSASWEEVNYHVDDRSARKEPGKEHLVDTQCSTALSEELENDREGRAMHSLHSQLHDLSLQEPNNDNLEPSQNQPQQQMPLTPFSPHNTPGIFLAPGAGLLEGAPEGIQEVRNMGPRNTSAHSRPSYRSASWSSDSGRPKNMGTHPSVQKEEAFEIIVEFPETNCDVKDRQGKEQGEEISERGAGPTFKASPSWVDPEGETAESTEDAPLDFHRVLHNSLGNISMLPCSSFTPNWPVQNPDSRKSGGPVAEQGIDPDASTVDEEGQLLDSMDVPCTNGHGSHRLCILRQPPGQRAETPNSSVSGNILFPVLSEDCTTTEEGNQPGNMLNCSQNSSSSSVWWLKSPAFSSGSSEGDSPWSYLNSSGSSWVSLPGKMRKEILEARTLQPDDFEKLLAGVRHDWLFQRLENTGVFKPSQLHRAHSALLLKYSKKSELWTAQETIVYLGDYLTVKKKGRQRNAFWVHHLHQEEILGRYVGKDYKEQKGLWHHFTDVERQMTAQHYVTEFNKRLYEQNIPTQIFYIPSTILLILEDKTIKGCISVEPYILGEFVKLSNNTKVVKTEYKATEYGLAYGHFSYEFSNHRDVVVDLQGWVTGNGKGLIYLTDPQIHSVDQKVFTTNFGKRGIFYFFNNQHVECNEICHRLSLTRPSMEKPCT

| SMILES | IL8 secretion in HEK293 cells (with 10% FBS) | IL8 secretion in HEK293 cells (without FBS) | resistance to FBS (serum) degradation (comparison of IL8 secretion without FBS and with 10% FBS (FIG. 27A, FIG. 27B)) |
| --- | --- | --- | --- |
| CC(=O)OC[C@@H](OC(C)=O)[C@H]1O[C@@H](OP(=O)(O)OP(=O)(O)OC[C@@]2(F)O[C@@H](n3cnc4c(N)ncnc43)[C@H](O)[C@@H]2O)[C@@H](OC(C)=O)[C@@H](OC(C)=O)[C@@H]1OC(C)=O [Compound 20, (2S,3S,4S,5R,6R)-2-(((((((2S,3S,4R,5R)-5-(6-amino-9H-purin-9-yl)-2-fluoro-3,4-dihydroxytetrahydrofuran-2-yl)methoxy)(hydroxy)phosphoryl)oxy)(hydroxy)phosphoryl)oxy)-6-((R)-1,2-diacetoxyethyl)tetrahydro-2H-pyran-3,4,5-triyl triacetate] | activate IL8 secretion | activate IL8 secretion | – |
| CC(=O)OC[C@@H](OC(C)=O)[C@H]1O[C@@H](OP(=O)(O)OP(=O)(O)OC[C@H]2O[C@@H](n3cnc4c(N)ncnc43)[C@H](O)[C@H]2F)[C@@H](OC(C)=O)[C@@H](OC(C)=O)[C@@H]1OC(C)=O [Compound 17, (2S,3S,4S,5R,6R)-2-(((((((2R,3R,4S,5R)-5-(6-amino-9H-purin-9-yl)-3-fluoro-4-hydroxytetrahydrofuran-2-yl)methoxy)(hydroxy)phosphoryl)oxy)(hydroxy)phosphoryl)oxy)-6-((R)-1,2-diacetoxyethyl)tetrahydro-2H-pyran-3,4,5-triyl triacetate] | increased IL8 secretion | increased IL8 secretion | – |
| CC(=O)OC[C@H](F)[C@H]1O[C@@H](OP(=O)(O)OP(=O)(O)OC[C@H]2O[C@@H](n3cnc4c(N)ncnc43)[C@H](O)[C@@H]2O)[C@@H](OC(C)=O)[C@@H](OC(C)=O)[C@@H]1OC(C)=O [Compound 3, (2S,3S,4S,5S,6S)-2-((S)-2-acetoxy-1-fluoroethyl)-6-(((((((2R,3S,4R,5R)-5-(6-amino-9H-purin-9-yl)-3,4-dihydroxytetrahydrofuran-2-yl)methoxy)(hydroxy)phosphoryl)oxy)(hydroxy)phosphoryl)oxy)tetrahydro-2H-pyran-3,4,5-triyl triacetate] | activate IL8 secretion | activate IL8 secretion | – |
| CC(=O)OC[C@H](OC(C)=O)[C@H]1O[C@@H](OP(=O)(O)OP(=O)(O)OC[C@H]2O[C@@H](n3cnc4c(N)ncnc43)[C@H](O)[C@@H]2O)[C@@H](OC(C)=O)[C@@H](OC(C)=O)[C@@H]1OC(C)=O [Compound 21, (2S,3S,4S,5R,6R)-2-(((((((2R,3S,4R,5R)-5-(6-amino-9H-purin-9-yl)-3,4-dihydroxytetrahydrofuran-2-yl)methoxy)(hydroxy)phosphoryl)oxy)(hydroxy)phosphoryl)oxy)-6-((S)-1,2-diacetoxyethyl)tetrahydro-2H-pyran-3,4,5-triyl triacetate] | increased IL8 secretion | increased IL8 secretion | – |
| CC(=O)OC[C@@H](OC(C)=O)C1O[C@@H](OP(=O)(O)OP(=O)(O)OCC2(F)O[C@@H](n3cnc4c(N)ncnc43)C3OC(C)(C)OC32)C(OC(C)=O)C(OC(C)=O)[C@@H]1OC(C)=O (single isomer, unassigned) [Compound 19] | activate IL8 secretion | activate IL8 secretion | – |
| COC1C(OC)[C@@H](COP(=O)(O)OP(=O)(O)O[C@@H]2OC([C@H](O)CO)[C@@H](O)C(O)C2O)O[C@H]1n1cnc2c(N)ncnc21 (stereo in doubt) [Compound 14, Adenosine-2′3′-dimethoxy-5′-(D-glycero-B-D-mannoheptopyranosyl) diphosphate] | increased IL8 secretion | increased IL8 secretion | – |
| CC(=O)OC[C@H]1O[C@@H](OP(=O)(O)OP(=O)(O)OC[C@H]2O[C@@H](n3cnc4c(N)ncnc43)[C@H](O)[C@@H]2O)[C@@H](OC(C)=O)[C@@H](OC(C)=O)[C@@H]1OC(C)=O [Compound 5, (2R,3R,4S,5S,6S)-2-(acetoxymethyl)-6-(((((((2R,3S,4R,5R)-5-(6-amino-9H-purin-9-yl)-3,4-dihydroxytetrahydrofuran-2-yl)methoxy)(hydroxy)phosphoryl)oxy)(hydroxy)phosphoryl)oxy)tetrahydro-2H-pyran-3,4,5-triyl triacetate] | increased IL8 secretion | increased IL8 secretion | – |
| Nc1ncnc2c1ncn2[C@@H]1O[C@H](COP(O)(=S)OP(=O)(O)O[C@@H]2OC([C@H](O)CO)[C@@H](O)[C@H](O)C2O)[C@H](O)C1O (some centres unmarked) [Compound 16] | increased IL8 secretion | increased IL8 secretion | – |
| CC(=O)OC[C@@H](OC(C)=O)C1O[C@@H](OP(=O)(O)OP(O)(=S)OC[C@H]2O[C@@H](n3cnc4c(N)ncnc43)C(O)C2O)C(OC(C)=O)C(OC(C)=O)[C@@H]1OC(C)=O (stereo partly drawn) [Compound 15, (2S,3S,4S,5R,6R)-2-(((((((2R,3S,4R,5R)-5-(6-amino-9H-purin-9-yl)-3,4-dihydroxytetrahydrofuran-2-yl)methoxy)(hydroxy)phosphorothioyl)oxy)(hydroxy)phosphoryl)oxy)-6-((R)-1,2-diacetoxyethyl)tetrahydro-2H-pyran-3,4,5-triyl triacetate] | activate IL8 secretion | activate IL8 secretion | unexpected resistance to serum degradation; also recorded: resistant to FBS degradation |
| CO[C@@H]1[C@H](OC)[C@@H](COP(=O)(O)OP(=O)(O)O[C@@H]2O[C@H]([C@@H](COC(C)=O)OC(C)=O)[C@@H](OC(C)=O)[C@H](OC(C)=O)[C@@H]2OC(C)=O)O[C@H]1n1cnc2c(N)ncnc21 [Compound 13, (2S,3S,4S,5R,6R)-2-(((((((2R,3R,4R,5R)-5-(6-amino-9H-purin-9-yl)-3,4-dimethoxytetrahydrofuran-2-yl)methoxy)(hydroxy)phosphoryl)oxy)(hydroxy)phosphoryl)oxy)-6-((R)-1,2-diacetoxyethyl)tetrahydro-2H-pyran-3,4,5-triyl triacetate] | increased IL8 secretion | increased IL8 secretion | – |
| Nc1ncnc2c1ncn2[C@@H]1O[C@H](COP(=O)(O)OP(=O)(O)O[C@@H]2OC([C@@H](O)CO)[C@@H](O)C(O)C2O)C(O)C1O (stereo in doubt) [Compound 22, Adenosine-5′-(L-glycero-β-D-mannoheptopyranosyl) diphosphate] | increased IL8 secretion | increased IL8 secretion | – |
